Measured values: US20260000689A1, “TARGETING CREB-HEPARAN SULFATE-FGF PATHWAY FOR CANCER TREATMENT” (UNIVERSITY OF SOUTH FLORIDA, priority 2022, published 2026)
“Also recorded” adds a separate entry of the source.

Tests used:
[1] = system: Myc-CaP cells with EXT1-overexpression; test: s.c. xenograft prostate cancer mouse model, EXT1-overexpressing Myc-CaP cells; format: in vivo, FVB/NJ mice
Text: (§1) FIG. 7A-FIG. 7F show inhibition of CREB or HS attenuates prostate cancer growth. […] 7A) and HS (FIG. 7B) in Myc-CaP cells, and the in vitro cell growth (FIG. 7C) and migration (FIG. 7D).
(§2) FIG. 22E and FIG. 22F show myc-Cap cells in vivo for KG-501 (FIG. 22E) and Surfen (FIG. 22F). FIG. 22G and FIG. 22H show Ext1-overexpressing myc-Cap cells in vivo for KG-501 (FIG. 22G) and Surfen (FIG. 22H).

Myc-CaP cells [2] = test: Colony formation of EXT1-overexpressing vs EV MyC-CaP cells with FGFR inhibitor; format: cell-based, mice; conditions: 1, 5, 10 μm AZD4547 vs DMSO
EXT1 mRNA = test: Expression of EXT1 mRNA in Myc-CaP cells; format: cell-based, mice
Text: as §1, §2

HS = test: Expression of HS (heparan sulfate staining) in Myc-CaP cells; format: cell-based, mice
Text: as §1, §2

Myc-CaP cells [3] = test: In vitro cell growth of Myc-CaP cells; format: cell-based, mice
Text: as §1, §2

Myc-CaP cells [4] = test: Cell migration of Myc-CaP cells; format: cell-based, mice
Text: as §1, §2

Myc-CaP cells [5] = test: s.c. xenograft prostate cancer mouse model, Myc-CaP cells; format: in vivo, FVB/NJ mice; conditions: without EXT1-overexpression
Text: as §1, §2

Row | SMILES | growth of EXT1-overexpressing Myc-CaP cells in s.c. xenograft prostate cancer mouse model [1] | resistance of EXT1-overexpressing cells to FGFR inhibitor in colony formation (Myc-CaP cells [2]) | expression of EXT1 mRNA (EXT1 mRNA) | expression of HS (HS) | in vitro cell growth (Myc-CaP cells [3]) | migration (Myc-CaP cells [4]) | growth of Myc-CaP cells in s.c. xenograft prostate cancer mouse model (Myc-CaP cells [5]) | growth of Myc-CaP cells in s.c. xenograft prostate cancer mouse model (Myc-CaP cells [5]; listed as surfen)
1 | COc1cc(CCc2cc(NC(=O)c3ccc(N4C[C@@H](C)N[C@@H](C)C4)cc3)n[nH]2)cc(OC)c1 [AZD4547] | blocks EXT1-overexpression-enhanced prostate cancer growth in vivo | more resistant |  |  |  |  |  | 
2 | O=C(Nc1ccc(Cl)cc1)c1cc2ccccc2cc1OP(=O)(O)O [KG-501, 2-naphthol-AS-E-phosphate] | efficiently inhibited; also recorded: attenuated prostate cancer growth in vivo |  | does-dependently inhibited | does-dependently inhibited | does-dependently inhibited | does-dependently inhibited | efficiently inhibited; also recorded: attenuated prostate cancer growth in vivo | 
3 | Cc1cc(N)c2cc(NC(=O)Nc3ccc4nc(C)cc(N)c4c3)ccc2n1 [Surfen, bis-2-methyl-4-amino-quinolyl-6-carbamide] | efficiently inhibited; also recorded: attenuated prostate cancer growth in vivo |  |  |  |  |  | efficiently inhibited; also recorded: attenuated prostate cancer growth in vivo | blocked PCa growth
